From ChEMBL document CHEMBL1201862, “PubChem BioAssay data set” (2004)
Calls of active or inactive are those of the source.

Experiments:
[1] = blockers of HIV-1 envelope-mediated cell-cell fusion – cherry-pick, dose response (AID 652057); format: functional, cell-based
[2] = HIV-1 AD8 envelope cell-cell fusion blockers – cherry-pick, dose response (AID 652062); format: functional, cell-based;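 note: luciferase signal from cell-cell fusion driven by HIV-1 clade B AD8 Env; potency is for inhibitors of fusion seen as a drop in luminescence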
Fatty acid synthase [3] = molecular target: T1, Fatty acid synthase (Homo sapiens, UniProt P49327); test: inhibition of human FAS-TE enzyme activity – biochemical, endpoint fluorescence intensity, uHTS hits, dose response (AID 624327); format: functional;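 note: fluorescence from hydrolysis of an O-methyl fluorescein acyl ester substrate by the enzyme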
Fatty acid synthase [4] = molecular target: T1, Fatty acid synthase; test: inhibition of human FAS-TE enzyme activity – biochemical, kinetic fluorescence intensity, dose response (AID 624326); format: functional;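 note: rate of fluorescence rise from hydrolysis of a fluorogenic O-methyl fluorescein ester substrate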
BJ [5] = test: BJ-TERT fibroblast viability loss – cell-based, RAS-independent, luminescence, dose response (AID 1933); format: functional; details: Homo sapiens
BJ [6] = test: cells; format: functional, cell-based; details: Homo sapiens
BJ [7] = test: BJ-TERT-LT-ST fibroblast viability loss – cell-based, RAS-independent, luminescence, dose response (AID 1935); format: functional; details: Homo sapiens;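 note: BJ fibroblasts immortalized with TERT plus LT and ST oncogenes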
[8] = DRD fibroblast viability loss – cell-based, non-viral oncogenic, luminescence, dose response (AID 1934); format: functional; details: Homo sapiens
[9] = molecular target: T2, Replicative DNA helicase DnaB (Mycobacterium tuberculosis, UniProt P9WMR3); test: DnaB intein splicing inhibitors, dose response, biochemical, cell-free fluorescence (AID 449749); format: functional
T2 sequence (P9WMR3 whole entry): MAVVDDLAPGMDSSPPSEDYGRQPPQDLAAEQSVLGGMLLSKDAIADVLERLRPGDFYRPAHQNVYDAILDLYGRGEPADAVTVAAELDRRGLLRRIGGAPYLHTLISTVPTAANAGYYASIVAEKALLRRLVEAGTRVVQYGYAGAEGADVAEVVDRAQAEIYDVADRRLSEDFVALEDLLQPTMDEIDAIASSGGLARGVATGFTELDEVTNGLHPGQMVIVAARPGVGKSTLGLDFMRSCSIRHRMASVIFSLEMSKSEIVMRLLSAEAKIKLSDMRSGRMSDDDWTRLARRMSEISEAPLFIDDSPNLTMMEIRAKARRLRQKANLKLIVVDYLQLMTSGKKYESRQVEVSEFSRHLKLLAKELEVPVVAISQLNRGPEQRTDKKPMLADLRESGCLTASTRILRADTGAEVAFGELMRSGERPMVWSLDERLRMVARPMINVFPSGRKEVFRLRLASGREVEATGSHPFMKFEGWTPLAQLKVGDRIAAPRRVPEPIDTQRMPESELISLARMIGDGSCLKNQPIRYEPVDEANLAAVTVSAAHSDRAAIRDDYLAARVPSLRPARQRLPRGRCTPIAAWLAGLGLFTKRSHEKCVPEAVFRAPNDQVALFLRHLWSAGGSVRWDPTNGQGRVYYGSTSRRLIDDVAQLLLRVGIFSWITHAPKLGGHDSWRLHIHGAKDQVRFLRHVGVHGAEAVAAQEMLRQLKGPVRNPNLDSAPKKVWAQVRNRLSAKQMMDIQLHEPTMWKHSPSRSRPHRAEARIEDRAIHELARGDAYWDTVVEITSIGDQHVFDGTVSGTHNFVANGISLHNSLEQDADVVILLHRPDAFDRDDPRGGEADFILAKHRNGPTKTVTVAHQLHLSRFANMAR

Protein RecA = molecular target: T3, Protein RecA (Mycobacterium tuberculosis, UniProt P9WHJ3); test: Fluorescence Cell-Free Homogeneous Dose Retest to Identify Inhibitors of RecA-Intein Splicing Activity. [Related pubchem assays (depositor defined):AID2097, AID2223, AID489010, AID492950]; format: functional
T3 sequence (P9WHJ3 whole entry): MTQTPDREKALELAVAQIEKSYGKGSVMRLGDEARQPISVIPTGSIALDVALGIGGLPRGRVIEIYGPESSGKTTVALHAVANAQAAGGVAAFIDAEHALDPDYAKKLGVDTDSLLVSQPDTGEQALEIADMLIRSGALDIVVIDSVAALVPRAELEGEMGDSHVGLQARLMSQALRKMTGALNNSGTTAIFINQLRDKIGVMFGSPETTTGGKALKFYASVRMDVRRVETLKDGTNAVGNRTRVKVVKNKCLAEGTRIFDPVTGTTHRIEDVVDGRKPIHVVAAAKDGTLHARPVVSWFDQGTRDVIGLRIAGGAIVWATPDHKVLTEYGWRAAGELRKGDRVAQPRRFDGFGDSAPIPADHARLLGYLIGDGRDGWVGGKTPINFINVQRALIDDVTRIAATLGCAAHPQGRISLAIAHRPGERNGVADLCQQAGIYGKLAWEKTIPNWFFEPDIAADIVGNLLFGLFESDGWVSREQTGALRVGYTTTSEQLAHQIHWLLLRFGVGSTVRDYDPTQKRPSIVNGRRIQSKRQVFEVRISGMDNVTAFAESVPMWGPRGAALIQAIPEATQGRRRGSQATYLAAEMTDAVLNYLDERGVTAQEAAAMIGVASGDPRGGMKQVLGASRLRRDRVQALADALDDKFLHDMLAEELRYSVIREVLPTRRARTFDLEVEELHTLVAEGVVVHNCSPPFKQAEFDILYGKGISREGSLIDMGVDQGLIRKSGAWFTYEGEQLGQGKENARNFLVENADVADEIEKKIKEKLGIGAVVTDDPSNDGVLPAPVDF

Cytochrome P450 2D6 = Cytochrome P450 2D6 (Homo sapiens, UniProt P10635);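 note: CYP2D6 member of a cytochrome P450 panel assay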
Cytochrome P450 2C9 = Cytochrome P450 2C9 (Homo sapiens, UniProt P11712)
[10] = molecular target: T4, Calpain-2 catalytic subunit (Sus scrofa, UniProt P43367); test: m-calpain protease blockers, concentration series – biochemical, fluorogenic peptide substrate, dose response (AID 1420); format: functional
T4 sequence (P43367 whole entry): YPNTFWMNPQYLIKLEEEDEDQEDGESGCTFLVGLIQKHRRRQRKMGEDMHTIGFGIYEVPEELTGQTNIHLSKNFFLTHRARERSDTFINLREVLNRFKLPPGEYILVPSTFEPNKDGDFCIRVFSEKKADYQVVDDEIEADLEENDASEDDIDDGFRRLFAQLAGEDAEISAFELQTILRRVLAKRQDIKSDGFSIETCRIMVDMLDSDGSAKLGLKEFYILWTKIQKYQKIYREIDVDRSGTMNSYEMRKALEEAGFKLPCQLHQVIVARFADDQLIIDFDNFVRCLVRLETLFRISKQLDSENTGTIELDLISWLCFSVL

[11] = viability of PTEN-deleted HCT116 cells – cell-based, HCT116 PTEN knockout, dose response (AID 1047); format: functional;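 note: HCT116 colon tumor cells with PTEN knocked out; cells exposed to compound for 60 hours before readout; potency for loss of cell viability measured by luminescence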
[12] = viability of HCT116 lacking mutant beta-catenin – cell-based, human colon tumor, dose response (AID 1045); format: functional;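 note: HCT116 colon tumor cells with beta catenin knocked out; cells exposed to compound for 60 hours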
[13] = NIH-3T3 fibroblast cytotoxicity, dose response, cytotoxicity control, cell-based, fluorescence, Alamar Blue, secondary assay (AID 2327); format: functional;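 note: NIH-3T3 mouse fibroblasts cultured with fluconazole at 8 µg/mL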
[14] = fluconazole-exposed Candida albicans growth modulators – fluorescence, retest, confirmation (AID 2467); format: functional, cell-based
P388/ADR = test: cells; format: functional; details: Mus musculus
SN12K1 = test: cells; format: functional; details: Homo sapiens
P388 = test: cells; format: functional; details: Mus musculus

T1 sequence (P49327 whole entry): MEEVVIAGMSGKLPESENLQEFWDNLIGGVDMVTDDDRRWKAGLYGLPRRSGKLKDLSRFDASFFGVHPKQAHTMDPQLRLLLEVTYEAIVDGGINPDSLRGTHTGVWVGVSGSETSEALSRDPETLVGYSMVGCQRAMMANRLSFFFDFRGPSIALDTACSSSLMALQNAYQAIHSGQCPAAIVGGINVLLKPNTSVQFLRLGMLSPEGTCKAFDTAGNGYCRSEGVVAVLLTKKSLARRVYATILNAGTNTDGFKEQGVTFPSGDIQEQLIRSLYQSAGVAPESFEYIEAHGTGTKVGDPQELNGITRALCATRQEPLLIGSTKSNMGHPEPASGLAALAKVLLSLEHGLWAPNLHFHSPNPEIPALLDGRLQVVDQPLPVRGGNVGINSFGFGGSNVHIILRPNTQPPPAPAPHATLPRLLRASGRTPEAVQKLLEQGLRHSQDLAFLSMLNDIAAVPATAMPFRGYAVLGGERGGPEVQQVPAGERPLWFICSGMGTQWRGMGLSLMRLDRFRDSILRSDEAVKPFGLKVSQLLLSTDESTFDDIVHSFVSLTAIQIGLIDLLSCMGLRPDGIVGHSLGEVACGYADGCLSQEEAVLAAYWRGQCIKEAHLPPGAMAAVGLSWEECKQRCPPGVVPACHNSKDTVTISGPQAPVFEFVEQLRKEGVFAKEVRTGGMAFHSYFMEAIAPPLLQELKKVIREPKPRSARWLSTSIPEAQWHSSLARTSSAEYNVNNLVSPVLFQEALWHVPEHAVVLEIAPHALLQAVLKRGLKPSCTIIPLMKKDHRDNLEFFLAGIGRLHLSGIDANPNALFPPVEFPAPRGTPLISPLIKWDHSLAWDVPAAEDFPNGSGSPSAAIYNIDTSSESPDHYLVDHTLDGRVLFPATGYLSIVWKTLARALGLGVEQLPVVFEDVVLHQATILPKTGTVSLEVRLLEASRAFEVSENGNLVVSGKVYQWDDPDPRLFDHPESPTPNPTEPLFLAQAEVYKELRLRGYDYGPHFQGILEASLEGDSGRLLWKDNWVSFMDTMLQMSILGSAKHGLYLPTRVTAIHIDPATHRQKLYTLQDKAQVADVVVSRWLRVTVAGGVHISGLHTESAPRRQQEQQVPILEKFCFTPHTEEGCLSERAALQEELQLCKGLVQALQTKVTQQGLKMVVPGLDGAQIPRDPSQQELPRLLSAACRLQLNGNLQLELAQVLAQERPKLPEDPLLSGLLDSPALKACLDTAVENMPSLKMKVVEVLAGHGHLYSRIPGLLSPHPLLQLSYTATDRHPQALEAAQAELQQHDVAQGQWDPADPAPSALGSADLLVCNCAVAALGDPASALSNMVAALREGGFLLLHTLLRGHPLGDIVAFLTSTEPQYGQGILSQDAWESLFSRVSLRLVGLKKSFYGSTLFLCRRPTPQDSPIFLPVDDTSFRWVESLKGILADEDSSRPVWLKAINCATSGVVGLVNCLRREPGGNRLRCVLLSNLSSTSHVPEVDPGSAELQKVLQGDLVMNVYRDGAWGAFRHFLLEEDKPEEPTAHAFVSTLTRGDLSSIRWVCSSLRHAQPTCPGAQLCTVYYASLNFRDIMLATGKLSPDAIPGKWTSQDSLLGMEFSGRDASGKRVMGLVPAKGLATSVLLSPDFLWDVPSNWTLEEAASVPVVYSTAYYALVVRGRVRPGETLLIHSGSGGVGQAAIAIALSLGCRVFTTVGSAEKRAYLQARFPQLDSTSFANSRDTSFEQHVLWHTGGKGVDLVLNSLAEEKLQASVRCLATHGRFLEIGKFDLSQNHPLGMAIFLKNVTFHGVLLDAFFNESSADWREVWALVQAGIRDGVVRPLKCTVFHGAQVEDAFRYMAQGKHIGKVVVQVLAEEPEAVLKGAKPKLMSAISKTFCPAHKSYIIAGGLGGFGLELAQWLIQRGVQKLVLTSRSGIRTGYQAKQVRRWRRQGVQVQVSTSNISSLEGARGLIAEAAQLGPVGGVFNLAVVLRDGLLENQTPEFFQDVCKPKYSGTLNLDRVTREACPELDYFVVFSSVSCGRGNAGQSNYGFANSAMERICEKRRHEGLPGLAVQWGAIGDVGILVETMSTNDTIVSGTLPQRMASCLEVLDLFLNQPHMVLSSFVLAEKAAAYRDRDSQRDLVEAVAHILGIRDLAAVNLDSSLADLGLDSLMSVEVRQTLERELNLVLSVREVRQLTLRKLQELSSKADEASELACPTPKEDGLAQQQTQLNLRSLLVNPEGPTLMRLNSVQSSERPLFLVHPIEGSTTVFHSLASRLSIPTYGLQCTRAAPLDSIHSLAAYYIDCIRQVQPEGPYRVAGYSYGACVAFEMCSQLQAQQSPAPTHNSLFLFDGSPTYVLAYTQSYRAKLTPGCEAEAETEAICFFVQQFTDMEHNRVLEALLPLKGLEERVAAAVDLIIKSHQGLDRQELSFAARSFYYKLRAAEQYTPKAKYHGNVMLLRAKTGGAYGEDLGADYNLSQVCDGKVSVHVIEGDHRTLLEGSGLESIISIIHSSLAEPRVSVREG
Sequence of Cytochrome P450 2C9 (P11712 whole entry): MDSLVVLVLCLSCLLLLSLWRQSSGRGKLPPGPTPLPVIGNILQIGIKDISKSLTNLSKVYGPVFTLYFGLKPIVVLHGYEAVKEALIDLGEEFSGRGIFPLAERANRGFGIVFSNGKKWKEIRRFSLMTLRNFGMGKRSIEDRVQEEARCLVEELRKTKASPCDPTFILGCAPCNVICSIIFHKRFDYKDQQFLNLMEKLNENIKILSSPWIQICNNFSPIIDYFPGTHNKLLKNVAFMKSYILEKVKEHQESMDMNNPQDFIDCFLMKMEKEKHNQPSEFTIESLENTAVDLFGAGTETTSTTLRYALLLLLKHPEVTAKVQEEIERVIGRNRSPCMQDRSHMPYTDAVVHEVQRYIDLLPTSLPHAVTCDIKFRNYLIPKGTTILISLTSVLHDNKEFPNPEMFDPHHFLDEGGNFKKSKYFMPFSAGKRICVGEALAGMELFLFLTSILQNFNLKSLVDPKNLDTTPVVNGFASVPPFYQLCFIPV
Sequence of Cytochrome P450 2D6 (P10635 whole entry): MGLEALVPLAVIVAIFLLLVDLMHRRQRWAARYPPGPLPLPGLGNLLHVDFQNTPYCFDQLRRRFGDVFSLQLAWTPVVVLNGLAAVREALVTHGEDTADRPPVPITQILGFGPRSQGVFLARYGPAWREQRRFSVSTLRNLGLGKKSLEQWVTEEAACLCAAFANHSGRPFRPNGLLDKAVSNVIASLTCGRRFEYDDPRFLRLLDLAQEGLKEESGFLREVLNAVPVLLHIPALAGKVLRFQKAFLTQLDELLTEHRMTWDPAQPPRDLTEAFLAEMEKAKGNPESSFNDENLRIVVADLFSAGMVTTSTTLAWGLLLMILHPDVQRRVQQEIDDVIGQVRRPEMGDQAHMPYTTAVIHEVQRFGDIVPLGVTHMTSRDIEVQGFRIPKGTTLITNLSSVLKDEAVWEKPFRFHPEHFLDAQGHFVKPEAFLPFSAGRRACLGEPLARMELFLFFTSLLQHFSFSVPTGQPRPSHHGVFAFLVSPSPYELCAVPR

Question: What does the source list for `O=C(C[C@H]1C=C[C@@H](NC(=O)Nc2ccccc2F)[C@@H](CO)O1)NCc1ccc(Cl)cc1`?
Answer: AC50 [1]: 3.07 µM (active); AC50 [2]: 9.13 µM (active)

Question: With `CN1CCN(c2ccc([N+](=O)[O-])cc2/C=N/NC(=O)c2ccc(F)cc2)CC1` as the molecule, how does the IC50 (Fatty acid synthase [3]) read?
Answer: 11.2 µM (active)

Question: And the IC50 (Fatty acid synthase [4])?
Answer: 16 µM (active)

Question: Which results are given for `Oc1c(Cl)cc(CN2CCCCC2)c2cccnc12`?
Answer: EC50 (BJ [5]): 1.39 µM (active); EC50 (BJ [6]): 25.9 µM (inconclusive); EC50 (BJ [7]): 76.1 µM (inconclusive); EC50 [8]: 53.1 µM (inconclusive)

Question: For `CCOC(=O)c1oc2nc(CC(C)C)c3c(c2c1N)CCC3`, which AC50 [9] is on record?
Answer: 91.7 µM (active)

Question: And the EC50 (Protein RecA)?
Answer: > 380 µM (inactive)

Question: And the AC50 (Cytochrome P450 2D6)?
Answer: 25.1 µM (inconclusive)

Question: What about the AC50 (Cytochrome P450 2C9) of the same molecule?
Answer: inconclusive

Question: Which EC50 (BJ [5]) does the source give for `O=C(N1CCN(c2ccccn2)CC1)N1c2ccccc2Sc2ccccc21` here?
Answer: 0.62 µM (active)

Question: What about the EC50 (BJ [6]) of the same molecule?
Answer: 53.6 µM (inconclusive)

Question: What about the IC50 [10] of the same molecule?
Answer: 4.55 µM (not active)

Question: And the EC50 (BJ [7])?
Answer: 0.979 µM (inconclusive)

Question: And the EC50 [8]?
Answer: 0.523 µM (active)

Question: For `CCCCn1cc[n+](C2=C([N-]S(=O)(=O)c3ccccc3)C(=O)c3ccccc3C2=O)c1`, which EC50 [11] is on record?
Answer: 5.34 µM (active)

Question: And the EC50 [12]?
Answer: 5.73 µM (active)

Question: With `O=c1[nH]cc(/N=C/c2cc([N+](=O)[O-])ccc2O)c(=O)[nH]1` as the molecule, how does the EC50 [13] read?
Answer: > 150 µM (inactive)

Question: And the EC50 [14]?
Answer: > 38 µM (not active)

Question: And the AC50 [9]?
Answer: 5.98 µM (active)

Question: And the EC50 (Protein RecA)?
Answer: 5.48 µM (active)

Question: With `CC(=O)Oc1ccc2ccccc2c1C(NC(=O)Cc1ccccc1)c1ccccc1Cl` (configuration not stated) as the molecule, how does the EC50 [11] read?
Answer: 22.4 µM (active)

Question: And the EC50 [12]?
Answer: 27.7 µM (active)

Question: Which GI50 (P388/ADR) does the source give for `CCN1CCCC(NCc2c3ccccc3c(CNC3CCCN(CC)C3)c3ccccc23)C1` (configuration not stated) here?
Answer: 15.7 µM (inactive)

Question: What about the GI50 (SN12K1) of the same molecule?
Answer: 8.32 µM (inactive)

Question: And the GI50 (P388)?
Answer: 2.64 µM (inactive)

Question: What does the source list for `COc1ccc(/C=C2\N=C(SC)NC2=O)cc1`?
Answer: EC50 [13]: > 150 µM (inactive); EC50 [14]: > 38 µM (not active)

Question: What does the source list for `COC(=O)C1CCN(Cc2c(C(=O)N3C[C@@H](C)O[C@@H](C)C3)nc3ccc(Cl)cn23)CC1`?
Answer: EC50 [13]: > 150 µM (inactive); EC50 [14]: > 38 µM (not active)
